The text below walks through data of EP0326936A2, “Use of 2-(phenyl-amino)-2-imidazolines in the application of shock therapy” (BOEHRINGER INGELHEIM KG, priority 1988, dated 1989).

Assay [1] has as its system hämorrhagischen Schock. Briefly: Second shock model: two-day observation phase, no preparation of the M. cremaster. The note with it: for Überlebende: number of survivors, N=15 per compound, Kontrolle 12 of 40. It counts as in vivo. From the text:
(§1) Die Eignung von Alinidin und anderen Verbindungen der allgemeinen Formel I zur erfindungsgemäßen Anwendung bei der Schocktherapie wurde in tierexperimentellen Untersuchungen an einem Cremaster-Modell bestätigt. Dieses Modell stellt eine etablierte Methode dar, (S. Hergenröder "Mikrozirkulation im hämorrhagischen Schock", Diplomarbeit am Fachbereich Biologie der Joh.-Gutenberg-Universität, Mainz 1987). An diesem Modell werden Einflüsse auf den systemischen Blutdruck, die Herzfrequenz, den daraus errechneten Schockindex sowie wichtige mikrozirkulatorische Parameter, wie Arteriolendurchmesser, die Eryhthrozytenfließgeschwindigkeit und die daraus errechnete Mikroperfusion (Organdurchblutung) und die Überlebensrate bestimmt. Der Versuchsablauf besteht aus einer präparativen Kontrollphase, gefolgt von einer spontanen Entblutung mit einem raschen Blutdruckabfall auf 25 mm Hg, einer isovolämischen intravenösen 10-minütigen Infusion mit physiologischer NaCl-Lösung (Kontrolltiere) bzw. physiologischer NaCl-Lösung mit darin gelösten Wirkstoffen und einer abschließenden Nachbeobachtungsphase (60 - 120 Minuten). Das zweite Modell unterscheidet sich durch eine zweitägige Nachbeobachtungsphase ohne Präparation des M. cremaster.

For assay [2], the system named is hämorrhagischen Schock. In words: Cremaster model of haemorrhagic shock (bleeding to 25 mm Hg, 10-minute isovolaemic i.v. infusion, 60-120 min observation). It counts as in vivo. The note with it: Alinidin 1 mg/kg, N=6.
Excerpt: as §1, with “cremaster. […]” for “cremaster.”

Regarding `C=CCN(C1=NCCN1)c1c(Cl)cccc1Cl` [C, 2-[N-2,6-Dichlorphenyl-N-allylamino]imidazolin-(2)], in assay [1], the Überlebende is recorded as 13. In addition, in assay [1] (survivors out of 15 pretreated animals), the “überlebten (Tiere)” value was 13. This molecule gave a Überlebensrate in assay [2] (NaCl control group 4 of 20 animals surviving after 60 minutes) of 100%. For the same molecule, in assay [2] (effects in NaCl control group small and short-lived), the “systemische, insbesondere mikrozirkulatorische Parameter” value is listed as “Erholung”.
In the case of `CCc1cccc(CC)c1N=C1NCCN1` [A, 2-[2,6-Diethylphenylimino]imidazolidin], the Überlebende in assay [1] came out at 10.
`CC#CCN(C1=NCCN1)c1c(Cl)cccc1Cl` [B, 2-[N-2,6-Dichlorphenyl-N-2-butinylamino]imidazolin-(2)] gave a Überlebende in assay [1] of 10.
